Experimental data: ChEMBL document CHEMBL4825686, “HTS-based discovery and optimization of novel positive allosteric modulators of the α7 nicotinic acetylcholine receptor” (Eur J Med Chem, 2021); call rule not given here
Converted amounts (≈) assume the structure as drawn.

What was measured:
[1] = Metabolic stability in human liver microsomes assessed as intrinsic clearance at 1 uM measured per mg protein upto 40 mins; type: ADME, Microsome; settings: read-out: CLH
[2] = Kinetic solubility of compound; type: physicochemical; settings: read-out: Kinetic_solubility
[3] = Metabolic stability in NMRI mouse liver microsomes assessed as intrinsic clearance at 1 uM measured per mg protein upto 40 mins; type: ADME, Microsome; settings: read-out: CLH
[4] = biological target: T1, Neuronal acetylcholine receptor subunit alpha-7 (Homo sapiens, UniProt P36544); assay: Positive allosteric modulator activity at human alpha7 nAChR expressed in Flp-In-HEK293 cells co-expressing RIC-3 assessed as potentiation of PNU282987-induced calcium influx measured after 10 mins by FLIPR assay; type: cell-based, Flp-In-293
T1 sequence (P36544 whole entry): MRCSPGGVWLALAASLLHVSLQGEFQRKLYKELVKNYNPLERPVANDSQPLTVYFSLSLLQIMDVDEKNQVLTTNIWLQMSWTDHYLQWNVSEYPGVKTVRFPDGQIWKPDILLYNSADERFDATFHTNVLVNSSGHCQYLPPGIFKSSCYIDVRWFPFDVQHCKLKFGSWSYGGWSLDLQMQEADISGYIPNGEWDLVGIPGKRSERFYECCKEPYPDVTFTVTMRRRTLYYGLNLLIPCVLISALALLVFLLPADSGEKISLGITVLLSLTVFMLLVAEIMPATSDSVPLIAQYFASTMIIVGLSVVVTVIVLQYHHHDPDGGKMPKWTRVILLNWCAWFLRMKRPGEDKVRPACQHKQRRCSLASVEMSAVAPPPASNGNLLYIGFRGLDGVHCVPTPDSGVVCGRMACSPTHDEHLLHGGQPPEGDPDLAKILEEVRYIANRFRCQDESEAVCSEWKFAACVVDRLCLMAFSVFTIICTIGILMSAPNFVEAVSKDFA

[5] = Metabolic stability in Wistar rat liver microsomes assessed as intrinsic clearance at 1 uM measured per mg protein upto 40 mins; type: ADME, Microsome; settings: read-out: CLH
[6] = Mutagenicity in Salmonella typhimurium TA1535 in absence of rat liver S9 fraction by AMES test; type: toxicity; settings: salmonella enterica subsp. enterica serovar typhimurium
[7] = Mutagenicity in Salmonella typhimurium TA1537 in absence of rat liver S9 fraction by AMES test; type: toxicity; settings: salmonella enterica subsp. enterica serovar typhimurium
[8] = Mutagenicity in Salmonella typhimurium TA98 in absence of rat liver S9 fraction by AMES test; type: toxicity; settings: salmonella enterica subsp. enterica serovar typhimurium
[9] = Mutagenicity in Salmonella typhimurium TA1535 in presence of rat liver S9 fraction by AMES test; type: toxicity, subcellular; settings: salmonella enterica subsp. enterica serovar typhimurium
[10] = Mutagenicity in Escherichia coli WP2 uvrA in presence of rat liver S9 fraction by AMES test; type: toxicity, subcellular
[11] = Mutagenicity in Escherichia coli WP2 uvrA in absence of rat liver S9 fraction by AMES test; type: toxicity
[12] = Mutagenicity in Salmonella typhimurium TA100 in absence of rat liver S9 fraction by AMES test; type: toxicity; settings: salmonella enterica subsp. enterica serovar typhimurium
[13] = Mutagenicity in Salmonella typhimurium TA98 in presence of rat liver S9 fraction by AMES test; type: toxicity, subcellular; settings: salmonella enterica subsp. enterica serovar typhimurium
[14] = Mutagenicity in Salmonella typhimurium TA1537 in presence of rat liver S9 fraction by AMES test; type: toxicity, subcellular; settings: salmonella enterica subsp. enterica serovar typhimurium
[15] = Mutagenicity in Salmonella typhimurium TA100 in presence of rat liver S9 fraction by AMES test; type: toxicity, subcellular; settings: salmonella enterica subsp. enterica serovar typhimurium
[16] = biological target: T1, Neuronal acetylcholine receptor subunit alpha-7; assay: Positive allosteric modulator activity at human alpha7 nAChR expressed in Flp-In-HEK293 cells co-expressing RIC-3 assessed as potentiation of PNU282987-induced calcium influx at 10 uM measured after 10 mins by FLIPR assay; type: cell-based; settings: Flp-In-293

Structure (SMILES) | microsomal CLint at 1 µM [1] [µL/min/mg] | solubility kinetic [2] [µM] | microsomal CLint at 1 µM [3] [µL/min/mg] | EC50 ([4]; read-out: EC50) [nM] | microsomal CLint at 1 µM [5] [µL/min/mg] | other results
Cc1ccc(Oc2cnc(C(=O)C(=O)Nc3ccc4c(ccn4C)c3)cn2)cc1 | 90 | 10 (≈ 3.86 µg/mL) | 156 | 650 | 127 | 
Cc1ccc(CN2CCN(C(=O)C(=O)Nc3cc(F)c4[nH]ccc4c3)CC2)cc1 | 17 | 42.7 (≈ 16.8 µg/mL) | 151 | 110 | 130 | Activity [6]: Toxic; Activity [7]: Toxic; Activity [8]: Toxic; Activity [9]: Toxic; Activity [10]: Toxic; Activity [11]: Toxic; Activity [12]: Toxic; Activity [13]: Toxic; Activity [14]: Toxic; Activity [15]: Toxic
Cc1ccc(CN2CCN(C(=O)c3nnc(-c4cccc5c4ccn5C)o3)CC2)cc1 |  |  |  | 660 |  | 
Cc1ccc(OCC2CN(C(=O)NCc3ccc4c(ccn4C)c3)C2)cc1 |  |  |  | 40 |  | 
Cn1ccc2cc(CNC(=O)N3CC(COc4ccccc4)C3)ccc21 |  |  |  | 180 |  | 
COCC(C(=O)Nc1ccc2c(ccn2C)c1)N1CCC(Oc2ccc(C)cc2)CC1 (centres undefined) |  |  |  |  |  | EC50 ([4]; flp-in-293): Not Active
Cn1ccc2cc(NC(=O)C(=O)c3cnc(Oc4ccc(Cl)cc4)s3)ccc21 |  | 0.1 (≈ 0.0412 µg/mL) |  |  |  | EC50 ([4]; flp-in-293): Not Active
Cc1ccc(CN2CCN(C(=O)C(=O)NCc3ccc4c(ccn4C)c3)CC2)cc1 |  |  |  |  |  | EC50 ([4]; flp-in-293): Not Active
Cc1ccc(CC2CCN(C(=O)C(=O)Nc3ccc4[nH]c(C)cc4c3)CC2)cc1 |  |  |  |  |  | EC50 ([4]; flp-in-293): Not Active
Cc1ccc(CN2CCC(c3nnc(C(=O)Nc4ccc5c(ccn5C)c4)o3)CC2)cc1 |  |  |  |  |  | EC50 ([4]; flp-in-293): Not Active
Cc1ccc(OCC2CCN(C(=O)NCc3ccc4c(ccn4C)c3)C2)cc1 (centres undefined) |  |  |  | 280 |  | 
Cn1nc(-c2ccc3c(ccn3C)c2)cc1C(=O)N1CCN(Cc2ccc(Cl)cc2)CC1 |  |  |  | 2500 |  | 
Cc1ccc(OC2CC3CCC(C2)N3C(=O)C(=O)Nc2ccc3[nH]ccc3c2)cc1 (centres undefined) | 12 | 8.1 (≈ 3.27 µg/mL) | 40 |  | 61 | EC50 ([4]; flp-in-293): Not Active
Cc1ccc(CC2CCN(C(=O)C(=O)Nc3ccc4[nH]ccc4c3)CC2)cc1 |  |  |  | 910 |  | 
Cc1ccc(CC2CCN(C(=O)NC(=O)c3ccc4c(ccn4C)c3)CC2)cc1 |  |  |  |  |  | Activity [16]: 37%
Cc1ccc(OC2CCN(C(=O)C(=O)Nc3ccc4c(ccn4C)c3)C2)cc1 (centres undefined) |  |  |  |  |  | Activity [16]: 25%

Now from value to compound, other results behind:

microsomal CLint at 1 µM [1] [µL/min/mg] | solubility kinetic [2] [µM] | microsomal CLint at 1 µM [3] [µL/min/mg] | EC50 ([4]; read-out: EC50) [nM] | microsomal CLint at 1 µM [5] [µL/min/mg] | Structure (SMILES) | other results
17 | 5 (≈ 2.02 µg/mL) | 198 | 920 | 140 | Cc1ccc(CN2CCN(C(=O)C(=O)Nc3ccc4c(c3)c(C)cn4C)CC2)cc1 | Activity [6]: Toxic; Activity [7]: Toxic; Activity [8]: Toxic; Activity [9]: Toxic; Activity [10]: Toxic; Activity [11]: Toxic; Activity [12]: Toxic; Activity [13]: Toxic; Activity [14]: Toxic; Activity [15]: Toxic
 |  |  | 210 |  | Cc1ccc(OC2CCN(C(=O)NCc3ccc4c(ccn4C)c3)CC2)cc1 | 
 | 5.6 (≈ 2.11 µg/mL) |  | 3300 |  | Cc1ccc(CN2CCN(C(=O)C(=O)Nc3ccn4cccc4c3)CC2)cc1 | 
21 | 16.5 (≈ 6.74 µg/mL) | 214 | 85 | 192 | Cc1ccc(CN2CCN(C(=O)C(=O)Nc3ccc4c(c3)c(F)cn4C)CC2)cc1 | Activity [6]: Toxic; Activity [7]: Toxic; Activity [8]: Toxic; Activity [9]: Toxic; Activity [10]: Toxic; Activity [11]: Toxic; Activity [12]: Toxic; Activity [13]: Toxic; Activity [14]: Toxic; Activity [15]: Toxic
0.3 | 47.4 (≈ 18.6 µg/mL) | 46 | 400 | 56 | Cc1ccc(CN2CCN(C(=O)C(=O)Nc3cnc4c(ccn4C)c3)CC2)cc1 | 
 |  |  | 600 |  | Cc1ccc(CN2CCC(C(=O)C(=O)Nc3ccc4c(ccn4C)c3)CC2)cc1 | 
71 | 95 (≈ 37.3 µg/mL) | 18 | 820 | 23 | Cc1ccc(CN2CCN(C(=O)C(=O)Nc3ccc4c(c3)CCN4C)CC2)cc1 | 
 | 6.8 (≈ 2.89 µg/mL) |  | 420 |  | Cc1ccc(CN2CCN(C(=O)C(=O)Nc3ccc4c(c3)c(Cl)cn4C)CC2)cc1 | Activity [6]: Toxic; Activity [7]: Toxic; Activity [8]: Toxic; Activity [9]: Toxic; Activity [10]: Toxic; Activity [11]: Toxic; Activity [12]: Toxic; Activity [13]: Toxic; Activity [14]: Toxic; Activity [15]: Toxic
12 |  | 39 | 210 | 41 | Cc1ccc(CN2CCN(C(=O)C(=O)Nc3cnc4c(c3)c(F)cn4C)CC2)cc1 | 
